Several values for one entry are separate records, joined by “and”; a condition that tells them apart may be missing. Identical values can stand only once. Entries after “also recorded” stand apart in the source; their conditions may differ. Starred links: 1 amine or outer side, 2 acyl side, 3 side chain; linkers in the order of their positions; H or OH if unused. Non-standard residues stand in square brackets, D forms with d. Residues, ends and D or L forms follow the SMILES beside them. X1 = CC[C@@H](C)[C@@H](O[*:1])C(=O)[*:2]; NMeVal(β-OH) = CN[C@H](C(=O)O)C(C)(C)O; NMeF = CN[C@@H](Cc1ccccc1)C(=O)O; aIle = CC[C@@H](C)[C@H](N)C(=O)O; NMeV = CN[C@H](C(=O)O)C(C)C
Tests used:
[1] = test system: fungal IPCS; design: method as in PMID 8593016, PMID 9405490, PMID 9614099, PMID 17420565, PMID 19644519; conditions: inhibitors of the fungal IPCS; cited from earlier work
[2] = biological target: T1, AtIPCS2 (Arabidopsis thaliana, UniProt Q9SH93); assay: HPTLC in vitro IPCS assay of microsomal extracts, NBD-IPC production (AtIPCS2); type: biochemical; conditions: presence vs absence of AbA
T1 construct: The complete open reading frames of AtIPCS2 and AUR1p were amplified from cDNA or GenEZ ORF Clones; made in house; microsomal membranes
T1 sequence (Q9SH93 1-305): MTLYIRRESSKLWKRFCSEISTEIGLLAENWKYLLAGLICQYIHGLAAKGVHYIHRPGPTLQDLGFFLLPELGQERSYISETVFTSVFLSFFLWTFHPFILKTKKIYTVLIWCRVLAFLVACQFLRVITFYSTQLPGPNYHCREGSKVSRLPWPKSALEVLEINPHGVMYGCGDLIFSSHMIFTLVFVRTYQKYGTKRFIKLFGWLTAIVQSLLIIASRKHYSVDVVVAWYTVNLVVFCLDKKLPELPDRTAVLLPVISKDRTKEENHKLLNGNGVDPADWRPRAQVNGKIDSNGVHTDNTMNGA
Description: In the quadruple pdr1∆ pdr3∆ pdr16∆ pdr17∆ strain, AUR1 was deleted and replaced by a HIS3 selectable marker, with growth supported by expression of the essential AUR1 gene from the plasmid pRS316-AUR1 under uracil selection. […] (Fig. 2).
Figure 2 HPTLC separation of in vitro assayed Aur1p and AtIPCS2 showing the production of NBD-IPC in the presence (+) and absence (−) of AbA. […] NBD-Cer is the substrate, NBD-C6-phytoceramide.
Microsomal material was prepared from MSY23-3C pESC-LEU_AtIPCS2 and MSY23-3C pESC-LEU_AUR1 as previously described. IPCS turnover was assayed using HPTLC (Merck) and imaged using a Fuji FLA−3000 reader and AIDA Image Analyser® software (version 3.52) as previously described. Subsequently, a 96-well plate assay was formatted based on the protocol described by Mina et al.[17]. […] Following incubation for 60 minutes (or 40 minutes for MSY23-3C pESC-LEU_AUR1 membranes) at 30 °C the reaction was quenched by the addition of 200 µl methanol per well, the reaction product separated using exchange chromatography in 96-well filter plates (Millipore)[17] and the fluorescence measured at Ex460/Em540 using a fluorescence Microplate Reader (Biotek Synergy H4 with Gen5™). […]

[3] = biological target: T2, Aur1p (Saccharomyces cerevisiae, UniProt P36107); assay: HPTLC in vitro IPCS assay of microsomal extracts, NBD-IPC production (Aur1p); type: biochemical; conditions: presence vs absence of AbA
T2 construct: The complete open reading frames of AtIPCS2 and AUR1p were amplified from cDNA or GenEZ ORF Clones; made in house; microsomal membranes
T2 sequence (P36107 1-401): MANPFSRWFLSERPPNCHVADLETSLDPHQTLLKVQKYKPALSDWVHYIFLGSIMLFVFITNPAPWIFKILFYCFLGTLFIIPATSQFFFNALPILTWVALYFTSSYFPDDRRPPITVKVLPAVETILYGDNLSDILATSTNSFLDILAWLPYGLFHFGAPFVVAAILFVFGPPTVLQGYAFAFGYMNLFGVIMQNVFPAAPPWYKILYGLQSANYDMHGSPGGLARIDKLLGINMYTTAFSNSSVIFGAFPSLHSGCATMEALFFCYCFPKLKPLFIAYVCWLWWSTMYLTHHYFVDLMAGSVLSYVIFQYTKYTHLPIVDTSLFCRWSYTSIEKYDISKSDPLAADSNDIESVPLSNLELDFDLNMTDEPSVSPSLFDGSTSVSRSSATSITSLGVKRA
T2 sequence (Q06346 1-221 partner): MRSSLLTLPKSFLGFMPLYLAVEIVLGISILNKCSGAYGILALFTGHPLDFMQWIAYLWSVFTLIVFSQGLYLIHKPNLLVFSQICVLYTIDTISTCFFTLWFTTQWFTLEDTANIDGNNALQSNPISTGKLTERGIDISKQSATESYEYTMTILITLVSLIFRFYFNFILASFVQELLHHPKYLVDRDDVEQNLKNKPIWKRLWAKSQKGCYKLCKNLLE
Description: Microsomal material was prepared from MSY23-3C pESC-LEU_AtIPCS2 and MSY23-3C pESC-LEU_AUR1 as previously described[33]. IPCS turnover was assayed using HPTLC (Merck) and imaged using a Fuji FLA−3000 reader and AIDA Image Analyser® software (version 3.52) as previously described[17].

[4] = test system: Arabidopsis seedlings; assay: In vivo screening, Arabidopsis seedlings grown on agar; design: species or system A. thaliana (Col0)
Description: In vivo testing of the phenylamidine Compound 1 was undertaken against Arabidopsis seedlings grown on agar.
A. thaliana (Col0) seedlings were grown for 10 days on 0.8% Murashige and Skoog (MS) agar and then transferred to 1.2% MS agar containing compounds at the desired concentrations or DMSO as a control. Plants were grown at 20 °C under 16 hour day/8 hour night photoperiod.

[5] = biological target: T2, Aur1p; assay: Secondary screening, 96-well plate microsomal in vitro IPCS enzyme assay (Aur1p control); type: biochemical
Description: (§1) In the secondary screening stage the previously described microsomal-based in vitro IPCS assay was adapted and utilised. Initially, all 106 selective hits from the primary screen were tested, in duplicate, at 10 µM.
(§2) Microsomal material was prepared from MSY23-3C pESC-LEU_AtIPCS2 and MSY23-3C pESC-LEU_AUR1 as previously described. IPCS turnover was assayed using HPTLC (Merck) and imaged using a Fuji FLA−3000 reader and AIDA Image Analyser® software (version 3.52) as previously described. Subsequently, a 96-well plate assay was formatted based on the protocol described by Mina et al.[17]. Following optimisation of substrate concentration and incubation time, each compound at the desired concentration (100 µM to 46 nM; in triplicate), was incubated in 96-well plates (Corning® Costar®) in phosphate buffer (71.4 mM, pH 7.0) with soybean PI (100 µM, final concentration, Avanti), NBD-C6-phytoceramide (15 µM; ThermoFisher) and microsomal membranes (0.3–0.4 Units[17]). Following incubation for 60 minutes (or 40 minutes for MSY23-3C pESC-LEU_AUR1 membranes) at 30 °C the reaction was quenched by the addition of 200 µl methanol per well, the reaction product separated using exchange chromatography in 96-well filter plates (Millipore)[17] and the fluorescence measured at Ex460/Em540 using a fluorescence Microplate Reader (Biotek Synergy H4 with Gen5™). […]

[6] = biological target: T1, AtIPCS2; assay: Secondary screening, 96-well plate microsomal in vitro IPCS enzyme assay (AtIPCS2); type: biochemical; conditions: AtIPCS2 IC50 (95% CI), microsomal membranes, dose response 100 µM to 46 nM, triplicate
Description: as §1, §2

pleofungin
IC50 against Saccharomyces cerevisiae [1]: low nano-molar

haplofungin
IC50 against Saccharomyces cerevisiae [1]: low nano-molar

CCCCCCCCCC[C@H](C)[C@@H](O)[C@@H](C)/C=C(C)/C=C(\C)C(=O)[C@H](C)/C=C(\C)C(=O)O[C@H](CO)[C@@H](O)[C@H](O)C(=O)O [khafrefungin]
IC50 against Saccharomyces cerevisiae [1]: low nano-molar

CC[C@@H](C)[C@@H]1NC(=O)[C@@H]2CCCN2C(=O)[C@H](Cc2ccccc2)N(C)C(=O)[C@H](Cc2ccccc2)NC(=O)[C@H](C(C)C)N(C)C(=O)[C@@H]([C@H](C)CC)OC(=O)[C@H](C(C)(C)O)N(C)C(=O)[C@H](CC(C)C)NC(=O)[C@H](C(C)C)N(C)C1=O [aureobasidin A] (cyclo(F[NMeF]P[aIle][NMeV]L[NMeVal(β-OH)][X1][NMeV]))
IC50 against Saccharomyces cerevisiae [1]: low nano-molar
sensitivity of AtIPCS2 activity (NBD-IPC production) to the compound [2]: insensitive
sensitivity of Aur1p activity (NBD-IPC production) to the compound [3]: Only the fungal enzyme Aur1p is sensitive

rustimicin
IC50 against Saccharomyces cerevisiae [1]: low nano-molar

Cc1cc(Oc2ccc(C#N)c(CC(C)(C)C)c2)c(C)cc1N=CN1CCCCC1 [Compound 1]
phenotype of treated seedlings ([4]; 7 day old seedlings on agar containing 10 and 40 µM, compared to DMSO control): clear purple patches associated with anthocyanin biosynthesis in response to stress[47], and an absence of lateral root development
effects on wild type Col-0 Arabidopsis seedlings, in words ([4]; in vivo screening, dose response): dose dependent effects with decreased lateral root development, and distinctive purple leaf patches; also recorded: induce the plant stress response
concentration at which treatment restricted growth and led to purple leaf patches ([4]; tested at 3.7, 11, 33 and 100 µM, compared to DMSO control): ≥ 11 µM
IC50 [5]: > 50 µM
IC50 [6]: 4.02 µM and < 5 µM

Reference: publication PMC6542793, “The identification of small molecule inhibitors of the plant inositol phosphorylceramide synthase which demonstrate herbicidal activity” (Scientific Reports, 2019)
